Values after ≈ are worked out from the molar mass of the structure shown. “Also recorded” adds a separate entry of the source. Like-named read-outs stand apart in the source and are kept apart here.
Key:
[1] = tested on: Chlamydia trachomatis serovar L2; assay: Infectivity of progeny bacteria (IFU titration, reactivation test); type: cell-based
Protocol: HeLa cells were infected with the Chlamydia trachomatis L2 serovar at 1 inclusion forming unit (IFU). At 3 hpi, 3 equal batches were distinguished and penicillin G was added at a concentration of 100 U/ml to the “penicillin G” batch (black bar) and “reversion” (gray bar) but not in the control batch (white bar). At 24 hpi, penicillin G was removed from the culture medium in the reversion group. At 48 hpi or 100 hpi, the supernatants and the cells were combined and stored at -80° C. Fresh cultures of HeLa cells were then incubated for 1 hour with cell extracts (left) or supernatants (right), incubated with cycloheximide and fixed 24 hours later. The nuclei and the inclusions were stained and counted to calculate the number of IFU/ml. […] It is also a first indication of the lethality of Chlamydia. HeLa cells were infected with Chlamydia trachomatis serovar L2 at 1 IFU. At 3 hpi, penicillin G was added at a concentration of 1, 10 or 100 U/ml in the penicillin G (-) and reversion (+) samples. At 24 hpi, penicillin G was removed from the culture medium in the reversion group (+). At 48 hpi or 100 hpi, the supernatants and the cells were collected and stored at -80° C. HeLa cells grown on slides were incubated for 1 hour with cell extracts (left) or with supernatants (right), treated with cycloheximide and fixed 24 hours later. The nuclei and inclusions were stained and counted to determine the number of IFU/ml. […] The infections were carried out at 37° C. for 90 minutes with centrifugation, followed by a washing of extracellular bacteria. At 3 hpi, after the washings, the culture medium was replaced with medium containing either 25 μg/ml gentamicin or 1-100 IU/ml penicillin G. At regular intervals after treatment with penicillin G, the cultures were either fixed in 4% neutral buffered PFA for 30 minutes to be prepared for confocal microscopy, or collected to determine the infectivity of the progeny bacteria, according to the previously described method (Verbeke, P. et al. PLoS Pathog 2:e45, 2006). HeLa cells cultured in monolayers on slides were infected with Chlamydia trachomatis serovar L2 and treated with penicillin G, as described above. Twenty hours after infection, the culture was washed and the medium replaced with medium free of penicillin G. Between 48 and 100 hpi, the cells and the culture medium were collected at various intervals and a titration test was performed according to the method of the prior art (Scidmore, M. A. Curr Protoc Microbiol Chapter 11: Unit 11A 11, 2005). To determine whether treatment with penicillin G could affect bacterial persistence, HeLa cells infected with L2 and treated with IFN-γ and penicillin G (500 IU/ml) from 48 hpi (i.e. 24 hours after treatment with IFN-γ) to 72 hpi (i.e. 48 hours after treatment with IFN-γ). The slides were then fixed and observed using an epifluorescence microscope (Leica D M, Leica, Mannheim, Germany) equipped with two sets of detection filters (Hoechst 360/40 nmBP-425 nmLP; FITC 480/40 nmBP-527/30 nmBP) and connected to a CCD camera CCC.

[2] = tested on: HeLa cells infected with Chlamydia trachomatis; assay: Sensitivity to apoptosis of infected cells (staurosporine); type: cell-based
Protocol: A: HeLa cells were infected with Chlamydia trachomatis and treated or not treated with penicillin G at 3 hpi. At 21 hpi, staurosporine was added to the culture medium. The cells were fixed at 48 hpi and stained with an antibody against Chlamydia sp. (green in the original figure) and Hoechst (blue in the original figure).
B: Normal or apoptotic nuclei associated with inclusions were counted and the percentage of infected cells in apoptosis was calculated.
HeLa cells were infected in the absence (white bar) or presence of penicillin G (100 U/ml) added at […] (light gray bar) or at 29 hpi (dark gray bar). Staurosporine was added at 31 hpi. The cells were fixed and observed as described below. The apoptotic or normal nuclei associated with inclusions were counted, and the percentages of apoptotic infected cells were determined. In 2 hours, treatment with penicillin G induces a loss of control by Chlamydia trachomatis over host cell apoptosis.
The effect of treatment with penicillin G on the anti-apoptotic activity of Chlamydia was determined. HeLa cells cultured in monolayers on slides were infected with serovar L2 and treated with penicillin G at 3 hpi or 29 hpi. At 25 hpi or 32 hpi, respectively, the cells were incubated with 1 μM staurosporine, fixed at 40 hpi or 48 hpi and prepared for epifluorescence microscopy. The percentages of infected cells containing apoptotic nuclei were calculated.

[3] = tested on: Chlamydia trachomatis inclusions; assay: Fusion of lysosomes with inclusions (cathepsin D, LysoTracker, confocal microscopy); type: cell-based
Chlamydia muridarum = assay: Murine model of genital infection (hydrosalpinx); type: in vivo, C57B1/6 mice; conditions: 5 mg/ml in drinking water for 20 days from day 10, read 60 days later
Source text: The mice were infected by vaginal route with 10^7 IFU of Chlamydia muridarum. […] The antibiotic treatment was stopped after 20 days and the mice were kept isolated for an additional 60 days. The mice were then sacrificed, the appearance of the genital tract analyzed and the presence of hydrosalpinx (arrows) sought.
C57B1/6 mice were infected with Chlamydia muridarum, a Chlamydia species that infects mice and guinea pigs and is genetically close to Chlamydia trachomatis. Estrous cycles in the mice were initiated by injection of progesterone, and then the mice were infected vaginally after 3 days (10^7 IFU). Ten days after infection, the mice were divided into three groups, a negative control group not receiving any antibiotic, a positive control group receiving doxycycline (5 mg/ml) and a test group receiving penicillin G (5 mg/ml). The duration of the treatment was 20 days; the antibiotics, doxycycline and penicillin G, were added to the mice's drinking water. After treatment, the mice were kept isolated for 60 days in order for persistent bacteria to reinitiate their cycle and for sequelae to develop. The mice were then sacrificed, the appearance of the genital tract analyzed and the presence of hydrosalpinx sought. Various organs were also taken.
The effects of penicillin G were tested in a murine model of genital infection. […]

[4] = tested on: Chlamydia trachomatis serovar L2; assay: Minimum bactericidal concentration (titration of infectious ability of bacteria from treated infected cells); type: cell-based
Protocol: (§1) It was first sought to verify whether other molecules of the β-lactam family could induce in vitro the same abnormal and noninfectious forms of Chlamydia trachomatis as that produced in the presence of penicillin G. Titration experiments were performed on the infectious ability of bacteria from infected cells treated with different β-lactams. Cytotoxicity and minimum bactericidal concentration (MBC) were determined for each of these molecules. It was also verified whether all of these β-lactams have bactericidal action on persistent forms of Chlamydia trachomatis produced in vitro under the effect of IFN-γ.

[5] = tested on: Cells Infected with Chlamydia trachomatis serovar L2; assay: Cytotoxicity of β-lactams; type: cell-based; conditions: given as 0
Protocol: as §1

In the case of `CC1(C)S[C@@H]2[C@H](NC(=O)Cc3ccccc3)C(=O)N2[C@H]1C(=O)O` [Penicillin G, benzylpenicillin], the “infectivity at low penicillin G concentrations” value ([1]; 1, 10 or 100 U/ml, permanent or transitory treatment) is reported as “same irreversible loss of infectivity; also recorded: no reinfection was obtained”, the “infectivity after removing penicillin G at 24 hpi (reversion)” value ([1]; 100 U/ml from 3 hpi, removed at 24 hpi) is reported as “no improvement in infectivity” and the “infectious ability (IFU/ml) with or without reversion phase” value ([1]; 100 U/ml, 48 hpi or 100 hpi, cell extracts and supernatants, FIG. 2) is reported as “no infectious ability could be shown”. The “infectivity of bacteria collected at 48 hpi compared with gentamicin-treated cells” value ([1]; continuous 100 IU/ml, 48 hpi) was “several hundred times less infectious”, the “infectivity of bacteria released at 100 hpi” value ([1]; continuous 100 IU/ml, 100 hpi) was “completely noninfectious” and the “speed of loss of control over host cell apoptosis” value ([2]; penicillin G 100 U/ml at 29 hpi, staurosporine at 31 hpi) was ≤ 2 h. For the same molecule, the apoptotic cells ([2]; penicillin G at 2 hpi or 29 hpi, staurosporine at 31 hpi, observed 8 hours later) was “Roughly 38%”, the “infected cells showing signs of apoptosis” value ([2]; penicillin G, 4 μM staurosporine at 21 hpi, read at 48 hpi) was 70.39% and the “localization of cathepsin D in inclusions” value ([3]; HeLa, 24 hpi) was “the majority of the abnormal bacterial forms contained cathepsin D”. For the same molecule, the “cathepsin D in abnormal inclusions of other cell/serovar pairs” value ([3]; RL95-2 cells/serovar L2 or HeLa cells/serovar D) was “also contain cathepsin D”, the “LysoTracker-stained compartments and inclusions” value ([3]; confocal videomicroscopy) was “compartments stained with LysoTracker probes enter abnormal inclusions” and the “appearance of the genital tract / hydrosalpinx” value (Chlamydia muridarum) was “normal appearance”. For the same molecule, the MBC ([4]; minimum bactericidal concentration, read-out: MBC) was 0.3 µM (≈ 0.1 µg/mL), the MBC ([4]; second line of the MBC cell, read-out: MBC, bound in parentheses below the value) was > 0.1 µM and the Cytotox. [5] was 0.

— US20130053336A1, “TREATMENT OF CHLAMYDIACEAE INFECTIONS BY MEANS OF BETA-LACTAMS” (priority 2010, published 2013)
